Test results reported in patent US20020052331A1, “Compositions and methods for antisense inhibition of protein translation” (priority 1990, published 2002).
Like-named read-outs stand apart in the source and are kept apart here. Strand notation (5' to 3'): a small letter for the sugar, then the base; units joined by * are phosphorothioate-linked, units joined directly phosphodiester-linked; [ ] holds rarer units or linkages, { } end groups; capitals alone tell only the bases. [MMI] = methylene(methylimino) internucleoside backbone linkage; [PRP-N] = 2'-O-propyl ribonucleoside (N: the base); [PRP] = 2'-O-propyl ribonucleoside; e = 2'-O-(2-methoxyethyl) (MOE); [5mC] = 5-methylcytosine; d = 2'-deoxy (DNA); m = 2'-O-methyl; f = 2'-fluoro

Legend:
[1] = system: E-selectin mRNA; assay: ELISA of E-selectin expression in HUVECs; type: cell-based, human; conditions: for inhibition of E-selectin expression: oligomer concentration of 50 nM
[2] = system: VCAM-1 mRNA; assay: ELISA of VCAM-1 expression in HUVECs; type: cell-based, human; conditions: for IC50: read-out: IC50 for inhibition of VCAM-1 expression
[3] = system: ICAM-1 mRNA; assay: ICAM-1 expression in U937 cells after electroporation of PNA oligomer (FACS); type: cell-based, human; conditions: electroporated into U937 cells
Text: A PNA oligomer, ISIS 10535 (SEQ ID NO: 2), was synthesized, which is a shortened version of SEQ ID NO: 1 made as a PNA, with three arginines added at the 5′ end and one lysine added at the 3′ end. This oligomer was electroporated into U937 cells and a potent dose-response was obtained.
Cells were removed from plate surfaces by brief trypsinization with 0.25% trypsin in PBS. Trypsin activity was quenched with a solution of 2% bovine serum albumin and 0.2% sodium azide in PBS (+Mg/Ca). Cells were pelleted by centrifugation at 1000 rpm (Beckman GPR centrifuge), resuspended in PBS and stained with 3 μl/10^5 cells of ICAM-1 specific antibody, CD54-PE (Becton Dickinson, Mansfield Mass.) and 0.1 μg of control conjugated antibody, IgG2b-PE (Pharmingen, San Diego Calif.). Antibodies were incubated with the cells for 30 minutes at 4° C. in the dark, under gentle agitation. Cells were washed and then resuspended in 0.3 ml of FACSFLOW buffer (Becton Dickinson) with 0.5% formaldehyde. Expression of cell surface ICAM-1 was then determined by flow cytometry using a Becton Dickinson FACScan (San Jose, Calif.). ICAM-1 expression was calculated as a percentage of control expression.
Cells were washed in PBS and resuspended in PBS at 1×10^6 cells/ml. […] ICAM-1 expression was quantitated by FACS as in Example 4.

[4] = system: ICAM-1 mRNA; assay: Reduction of ICAM-1 protein levels in HUVEC cells (LIPOFECTIN delivery, FACS); type: cell-based, human
[5] = system: ICAM-1 mRNA; assay: ELISA of human ICAM-1 protein expression in HUVECs (mAb84H10); type: cell-based; conditions: FIG. 4 experiment
[6] = system: ICAM-1 mRNA; assay: Cell surface ICAM-1 expression in U937 cells after electroporation of MMI oligomers; type: cell-based, human; conditions: six concentrations 4 to 40 μM, N.A. = IC50 not obtained in the given dose range, read-out: Antisense activity (IC50) Electroporate
Method: ISIS 14293-14296 are corresponding oligomers with alternating MMI/P═S backbones.
U937 cells were washed once in cold Opti-MEM (Gibco-BRL, Grand Island, N.Y.) and resuspended at 4×10^6 cells/ml. Oligomer was added to 0.1 ml of cells and incubated for 10 minutes on ice. Cells were transferred to a 1 mm gap electrode (BTX, San Diego, Calif.) and electroporated at 0.75 kV/cm. Cells were incubated at room temperature for 10 minutes and transferred to pre-warmed medium. Cells were allowed to rest for 1.5 hours before ICAM-1 expression was induced with 5 ng/ml TNF-αovernight. Cells were stained with an anti-ICAM-1-PE antibody (Pharmingen, San Diego CA) the next day.

[7] = system: ICAM-1 mRNA; assay: Cell surface ICAM-1 expression in HUVECs after Lipofectin delivery of MMI oligomers; type: cell-based, human; conditions: six concentrations 6.2 to 200 nM, N.A. = IC50 not obtained in the given dose range, read-out: Antisense activity (IC50) Lipofectin
[8] = HUVECs, ELISA, FIG. 5 experiment, read-out: IC50 for reduction of E-selectin expression
[9] = HUVECs, ELISA, equivalent (second) experiment, read-out: IC50 for reduction of E-selectin expression
[10] = read-out: IC50 for inhibition of ICAM-1 protein expression

In the case of “ISIS 4764: SEQ ID NO: 3, P═S deoxy; E-selectin 5′ cap (dG*dA*dA*dG*dT*dC*dA*dG*dC*dC*dA*dA*dG*dA*dA*dC*dA*dG*dC*dT)”, the IC50 [1, 8] is reported as ~0.01 µM, the IC50 [1, 9] is reported as 0.01 µM and the IC50 ([1]; HUVECs, FIG. 3 experiment, read-out: IC50 for inhibition of E-selectin expression) is reported as < 0.01 µM.

“ISIS 5884: CGATGCAGATACCGCGGAGT (SEQ ID NO: 15), P═S deoxy; VCAM-1 n.t. 1-20 (dC*dG*dA*dT*dG*dC*dA*dG*dA*dT*dA*dC*dC*dG*dC*dG*dG*dA*dG*dT)” was tested, and the IC50 ([2]; FIG. 6 experiment) was 0.01 to 0.012 µM.

With “ISIS 9218: SEQ ID NO: 3, P═S all 2′-O-propyl except 3′ nt is deoxy; E-selectin 5′ cap (GAAGTCAGCCAAGAACAGCT; sugars from the 5' end [PRP]19 d1, all phosphorothioate, methylation of C not given here)” the IC50 [1, 9] was 0.025 µM.

“ISIS 9984: SEQ ID NO: 3 GAAGTCAGCCAAGAACAGCT, P═S all 2′ F except 3′ nt is deoxy; E-selectin 5′ cap (sugars from the 5' end f19 d1, all phosphorothioate, T or U not given here)” was tested, and the “IC50 for inhibition of E-selectin expression” value ([1]; HUVECs, FIG. 3 experiment) was “well below this” and the “relative activity in inhibiting E-selectin protein expression” value ([1]; among over 30 2′-fluoro phosphorothioate sequences complementary to various regions of the E-selectin message) was “by far the most active”.

For “ISIS 10535: PNA oligomer (SEQ ID NO: 2), shortened SEQ ID NO: 1, three arginines at the 5′ end and one lysine at the 3′ end (antisense TCTGAGTAGCAGAGGAGC; all peptide nucleic acid (PNA); three arginines at 5' end, one lysine at 3' end)”, the “ICAM-1 level at higher doses” value [3] was “below baseline levels” and the IC50 ([3]; read-out: IC50 for ICAM-1 reduction) was < 5 µM.

“ISIS 11158: SEQ ID NO: 1, 2′-methoxyethoxy, phosphodiester (P═O); targeted to ICAM-1 5′ cap (antisense TCTGAGTAGCAGAGGAGCTC; all 2'-MOE, all phosphodiester, methylation of C not given here)” was tested, and the “ICAM-1 protein expression at the oligonucleotide concentrations of the Northern experiment” value ([4]; HUVECs) was “completely inhibited”, the IC50 ([4]; read-out: IC50 (concentration required for 50% inhibition of ICAM-1 levels), HUVEC cells) was ~0.009 µM and the IC50 [5, 10] was ~0.005 µM. For the same substance, the IC50 [6] was 1 µM.

“ISIS 11205: SEQ ID NO: 3, P═S all 2′ F except 3′ nt is deoxy, all C's 5meC; E-selectin 5′ cap (antisense GAAGTCAGCCAAGAACAGCT; sugars from the 5' end f19 d1, all C 5-methyl, all phosphorothioate, T or U not given here)” was tested, and the IC50 [1, 8] was < 0.003 µM, the IC50 [1, 9] was < 0.003 µM and the “inhibition of E-selectin expression” value ([1]; HUVECs) was ~100%.

In the case of “ISIS 11928: SEQ ID NO: 3, P═S all 2′-MOE except 3′ nt is deoxy, all C's 5meC; E-selectin 5′ cap (antisense eG*eA*eA*eG*eT*e[5mC]*eA*eG*e[5mC]*e[5mC]*eA*eA*eG*eA*eA*e[5mC]*eA*eG*e[5mC]*dT)”, the IC50 [1, 8] is reported as < 0.003 µM, the IC50 [1, 9] is reported as < 0.003 µM and the “inhibition of E-selectin expression” value ([1]; HUVECs) is reported as ~100%.

In the case of “ISIS 13181: SEQ ID NO: 15 sequence, P═S all 2′ F; VCAM-1 n.t. 1-20 (antisense CGATGCAGATACCGCGGAGT; sugars from the 5' end f19 d1, all phosphorothioate, T or U not given here)”, the IC50 ([2]; FIG. 6 experiment) is reported as < 0.01 µM and the “inhibition of VCAM-1 expression” value ([2]; highest dose tested, 100 nM) is reported as 100%.

For “ISIS 13182: SEQ ID NO: 15, P═S all 2′-MOE, all C's are 5meC; VCAM-1 n.t. 1-20 (antisense e[5mC]*eG*eA*eT*eG*e[5mC]*eA*eG*eA*eT*eA*e[5mC]*e[5mC]*eG*e[5mC]*eG*eG*eA*eG*dT)”, the IC50 ([2]; FIG. 6 experiment) was < 0.01 µM.

For “ISIS 13183: SEQ ID NO: 15, P═O all 2′-MOE, all C's are 5meC; VCAM-1 n.t. 1-20 (antisense e[5mC]eGeAeTeGe[5mC]eAeGeAeTeAe[5mC]e[5mC]eGe[5mC]eGeGeAeGdT)”, the IC50 ([2]; FIG. 6 experiment) was < 0.01 µM.

Substance “ISIS 13884: GGCTGAGGTTGCAACTCTGA (SEQ ID NO: 9), uniform P═O/2′MOE; ICAM-1 n.t. 16-35 (antisense eGeGe[5mC]eTeGeAeGeGeTeTeGe[5mC]eAeAe[5mC]eTe[5mC]eTeGdA)” has an IC50 [5, 10] of ~0.04 µM.

“ISIS 13886: GCAACTCTGAGTAGCAGAGG (SEQ ID NO: 10), uniform P═O/2′MOE; ICAM-1 n.t. 6-25 (antisense eGe[5mC]eAeAe[5mC]eTe[5mC]eTeGeAeGeTeAeGe[5mC]eAeGeAeGdG)” was tested, and the IC50 [5, 10] was > 0.05 µM and the IC50 ([5]; tested only up to 50 nM, read-out: estimated IC50 by extrapolation of the dose-response curve) was ~0.06 µM.

“ISIS 14040: SEQ ID NO: 15, P═S all 2′-O-propyl, all C's are 5meC; VCAM-1 n.t. 1-20 (antisense [PRP-5mC]*[PRP-G]*[PRP-A]*[PRP-T]*[PRP-G]*[PRP-5mC]*[PRP-A]*[PRP-G]*[PRP-A]*[PRP-T]*[PRP-A]*[PRP-5mC]*[PRP-5mC]*[PRP-G]*[PRP-5mC]*[PRP-G]*[PRP-G]*[PRP-A]*[PRP-G]*dT)” was tested, and the IC50 ([2]; subsequent experiment) was < 0.01 µM.

With “ISIS 14041: SEQ ID NO: 15, P═S all 2′-O-methyl, all C's are 5meC; VCAM-1 n.t. 1-20 (CGATGCAGATACCGCGGAGT; sugars from the 5' end m19 d1, all C 5-methyl, all phosphorothioate, T or U not given here)” the IC50 ([2]; subsequent experiment) was < 0.01 µM.

Work on “ISIS 14043: SEQ ID NO: 3, P═S all 2′-O-methyl except 3′ nt is deoxy, all C's 5meC; E-selectin 5′ cap (GAAGTCAGCCAAGAACAGCT; sugars from the 5' end m19 d1, all C 5-methyl, all phosphorothioate, T or U not given here)” yielded an IC50 [1, 9] of 0.01 µM.

“ISIS 14290: T*GA*GT*AG*CA*GA*GG*AG*CT*C (SEQ ID NO: 12), alternating P═O/MMI; ICAM-1 n.t. 1-18 (TGAGTAGCAGAGGAGCTC; linkages [MMI]o[MMI]o[MMI]o[MMI]o[MMI]o[MMI]o[MMI]o[MMI]o[MMI] (s phosphorothioate, o phosphodiester), sugars by position and methylation of C not given here; 3'-terminal nucleotide 2'-deoxy, non-terminal cytosines 5-methylated)” showed an IC50 [6] of 7 µM.

“ISIS 14292: T*AG*CA*GA*GG*AG*CT*C (SEQ ID NO: 14), alternating P═O/MMI; ICAM-1 n.t. 1-14 (TAGCAGAGGAGCTC; linkages [MMI]o[MMI]o[MMI]o[MMI]o[MMI]o[MMI]o[MMI] (s phosphorothioate, o phosphodiester), sugars by position and methylation of C not given here; 3'-terminal nucleotide 2'-deoxy, non-terminal cytosines 5-methylated)” gave an IC50 [6] of 15 µM.

With “ISIS 14293: T*CT*GA*GT*AG*CA*GA*GG*AG*CT*C (SEQ ID NO: 1), alternating P═S/MMI; ICAM-1 n.t. 1-20 (TCTGAGTAGCAGAGGAGCTC; linkages [MMI]s[MMI]s[MMI]s[MMI]s[MMI]s[MMI]s[MMI]s[MMI]s[MMI]s[MMI] (s phosphorothioate, o phosphodiester), sugars by position and methylation of C not given here; 3'-terminal nucleotide 2'-deoxy, non-terminal cytosines 5-methylated)” the IC50 [6] was 32 µM and the IC50 [7] was 0.115 µM.

“ISIS 14295: A*GT*AG*CA*GA*GG*AG*CT*C (SEQ ID NO: 13), alternating P═S/MMI; ICAM-1 n.t. 1-16 (AGTAGCAGAGGAGCTC; chemistry not fully specified)” was tested, and the IC50 [6] was 35 µM.
